Test results taken from ChEMBL document CHEMBL1141625, “Potent, selective MCH-1 receptor antagonists” (Bioorg Med Chem Lett, 2008).

Assays:
[1] = biological target: Somatostatin receptor type 5 (Homo sapiens) (UniProt P35346); assay: Inhibition of SST5 receptor at 10 uM
[2] = biological target: T1, Melanin-concentrating hormone receptor 1 (Homo sapiens, UniProt Q99705); assay: Antagonist activity at MCHR1 by cAMP assay; type: functional
[3] = biological target: T1, Melanin-concentrating hormone receptor 1; assay: Binding affinity to MCHR1
[4] = biological target: T2, 5-hydroxytryptamine receptor 2C (Homo sapiens) (UniProt P28335); assay: Inhibition of 5HT2C receptor at 10 uM
T2 sequence (whole entry): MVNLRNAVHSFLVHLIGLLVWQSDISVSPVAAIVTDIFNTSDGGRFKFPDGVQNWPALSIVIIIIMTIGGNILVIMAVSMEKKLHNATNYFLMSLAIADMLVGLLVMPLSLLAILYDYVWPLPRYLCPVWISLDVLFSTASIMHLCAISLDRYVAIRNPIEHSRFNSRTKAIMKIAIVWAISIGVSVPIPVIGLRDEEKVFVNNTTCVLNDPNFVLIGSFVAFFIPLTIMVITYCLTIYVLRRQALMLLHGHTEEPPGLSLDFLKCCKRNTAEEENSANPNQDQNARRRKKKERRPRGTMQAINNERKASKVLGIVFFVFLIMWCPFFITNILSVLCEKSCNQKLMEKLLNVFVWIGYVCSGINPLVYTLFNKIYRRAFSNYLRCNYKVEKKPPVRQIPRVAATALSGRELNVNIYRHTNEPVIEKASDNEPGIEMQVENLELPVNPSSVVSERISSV

[5] = biological target: T3, 5-hydroxytryptamine receptor 1A (Homo sapiens) (UniProt P08908); assay: Inhibition of 5HT1A receptor at 10 uM
T3 sequence (whole entry): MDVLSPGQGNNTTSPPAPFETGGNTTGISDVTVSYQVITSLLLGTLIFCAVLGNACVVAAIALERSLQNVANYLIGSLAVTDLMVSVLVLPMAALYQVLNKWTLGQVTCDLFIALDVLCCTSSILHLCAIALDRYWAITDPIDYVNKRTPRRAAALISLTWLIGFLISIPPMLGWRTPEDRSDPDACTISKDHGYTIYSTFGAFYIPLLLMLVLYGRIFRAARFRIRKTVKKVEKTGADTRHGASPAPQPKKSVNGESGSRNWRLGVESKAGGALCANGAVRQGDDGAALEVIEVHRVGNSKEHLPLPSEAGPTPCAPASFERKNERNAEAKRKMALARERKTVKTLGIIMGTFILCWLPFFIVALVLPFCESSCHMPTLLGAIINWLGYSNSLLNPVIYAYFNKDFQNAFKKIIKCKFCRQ

[6] = biological target: Sodium-dependent dopamine transporter (Homo sapiens) (UniProt Q01959); assay: Inhibition of DAT at 10 uM
Sequence of Sodium-dependent dopamine transporter (Homo sapiens) (Q01959 whole entry): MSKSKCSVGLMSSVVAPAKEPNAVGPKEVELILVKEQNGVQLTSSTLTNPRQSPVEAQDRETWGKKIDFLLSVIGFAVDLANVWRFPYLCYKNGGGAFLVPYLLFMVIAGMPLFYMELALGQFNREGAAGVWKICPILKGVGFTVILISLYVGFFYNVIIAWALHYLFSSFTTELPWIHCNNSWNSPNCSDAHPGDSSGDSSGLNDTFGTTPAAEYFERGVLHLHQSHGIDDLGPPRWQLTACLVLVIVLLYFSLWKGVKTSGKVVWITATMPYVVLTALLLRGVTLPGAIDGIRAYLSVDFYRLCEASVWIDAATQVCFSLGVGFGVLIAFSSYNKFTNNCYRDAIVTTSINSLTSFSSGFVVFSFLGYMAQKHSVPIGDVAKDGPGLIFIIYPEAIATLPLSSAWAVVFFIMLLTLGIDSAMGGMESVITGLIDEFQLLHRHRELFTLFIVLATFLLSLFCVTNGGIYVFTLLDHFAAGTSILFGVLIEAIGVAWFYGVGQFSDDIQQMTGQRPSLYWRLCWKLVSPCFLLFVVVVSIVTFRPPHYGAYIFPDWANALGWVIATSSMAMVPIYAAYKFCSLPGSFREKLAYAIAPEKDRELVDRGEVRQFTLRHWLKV

[7] = biological target: Sodium-dependent noradrenaline transporter (Homo sapiens) (UniProt P23975); assay: Inhibition of NET at 10 uM
Sequence of Sodium-dependent noradrenaline transporter (Homo sapiens) (P23975 whole entry): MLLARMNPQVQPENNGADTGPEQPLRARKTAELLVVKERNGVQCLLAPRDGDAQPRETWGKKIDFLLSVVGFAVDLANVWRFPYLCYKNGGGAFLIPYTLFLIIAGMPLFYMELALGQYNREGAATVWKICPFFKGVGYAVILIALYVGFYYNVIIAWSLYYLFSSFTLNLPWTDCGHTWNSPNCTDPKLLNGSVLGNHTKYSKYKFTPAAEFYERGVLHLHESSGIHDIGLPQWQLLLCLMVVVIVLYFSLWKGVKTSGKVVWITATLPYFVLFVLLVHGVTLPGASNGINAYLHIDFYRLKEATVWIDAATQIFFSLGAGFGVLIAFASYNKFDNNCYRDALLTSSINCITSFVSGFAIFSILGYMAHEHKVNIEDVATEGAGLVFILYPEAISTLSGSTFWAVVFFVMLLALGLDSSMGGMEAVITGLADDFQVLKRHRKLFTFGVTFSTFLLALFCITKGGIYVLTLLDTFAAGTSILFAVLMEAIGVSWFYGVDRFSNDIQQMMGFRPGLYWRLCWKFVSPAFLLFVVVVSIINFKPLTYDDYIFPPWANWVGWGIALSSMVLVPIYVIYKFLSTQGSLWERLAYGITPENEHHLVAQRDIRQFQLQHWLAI

[8] = biological target: Sodium-dependent serotonin transporter (Homo sapiens) (UniProt P31645); assay: Inhibition of SERT at 10 uM
Sequence of Sodium-dependent serotonin transporter (Homo sapiens) (P31645 whole entry, looked up): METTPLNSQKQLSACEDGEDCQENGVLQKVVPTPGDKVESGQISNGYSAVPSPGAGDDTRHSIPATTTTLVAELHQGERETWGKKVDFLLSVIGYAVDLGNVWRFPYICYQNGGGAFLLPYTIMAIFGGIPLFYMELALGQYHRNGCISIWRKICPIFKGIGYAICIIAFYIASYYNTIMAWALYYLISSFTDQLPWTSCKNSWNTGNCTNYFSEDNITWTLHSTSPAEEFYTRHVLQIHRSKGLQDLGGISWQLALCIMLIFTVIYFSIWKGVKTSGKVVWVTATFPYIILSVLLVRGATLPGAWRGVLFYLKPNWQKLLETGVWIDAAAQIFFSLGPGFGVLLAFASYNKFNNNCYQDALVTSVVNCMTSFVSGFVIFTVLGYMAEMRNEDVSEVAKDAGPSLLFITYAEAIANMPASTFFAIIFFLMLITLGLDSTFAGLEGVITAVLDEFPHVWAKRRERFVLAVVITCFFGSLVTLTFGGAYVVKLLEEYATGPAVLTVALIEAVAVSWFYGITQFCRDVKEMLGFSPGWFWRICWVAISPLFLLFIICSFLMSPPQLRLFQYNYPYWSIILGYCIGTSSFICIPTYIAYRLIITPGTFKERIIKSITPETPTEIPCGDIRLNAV

[9] = biological target: T4, Muscarinic acetylcholine receptor M2 (Homo sapiens) (UniProt P08172); assay: Inhibition of muscarinic M2 receptor at 10 uM
T4 sequence (whole entry): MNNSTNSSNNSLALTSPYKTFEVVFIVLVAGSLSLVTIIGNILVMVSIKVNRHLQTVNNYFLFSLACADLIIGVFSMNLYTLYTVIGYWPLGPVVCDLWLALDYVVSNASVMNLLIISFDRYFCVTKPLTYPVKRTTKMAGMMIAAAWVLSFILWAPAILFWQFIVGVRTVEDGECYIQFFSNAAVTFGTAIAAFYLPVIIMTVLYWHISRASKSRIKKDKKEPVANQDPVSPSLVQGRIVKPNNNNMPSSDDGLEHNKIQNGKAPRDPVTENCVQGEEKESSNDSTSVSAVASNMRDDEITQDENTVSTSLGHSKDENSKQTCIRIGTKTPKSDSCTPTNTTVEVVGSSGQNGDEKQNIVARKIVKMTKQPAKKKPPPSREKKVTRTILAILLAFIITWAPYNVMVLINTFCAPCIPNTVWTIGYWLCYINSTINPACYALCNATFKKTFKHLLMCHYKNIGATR

[10] = biological target: D(3) dopamine receptor (Homo sapiens) (UniProt P35462); assay: Inhibition of dopamine D3 receptor at 10 uM
Sequence of D(3) dopamine receptor (Homo sapiens) (P35462 whole entry): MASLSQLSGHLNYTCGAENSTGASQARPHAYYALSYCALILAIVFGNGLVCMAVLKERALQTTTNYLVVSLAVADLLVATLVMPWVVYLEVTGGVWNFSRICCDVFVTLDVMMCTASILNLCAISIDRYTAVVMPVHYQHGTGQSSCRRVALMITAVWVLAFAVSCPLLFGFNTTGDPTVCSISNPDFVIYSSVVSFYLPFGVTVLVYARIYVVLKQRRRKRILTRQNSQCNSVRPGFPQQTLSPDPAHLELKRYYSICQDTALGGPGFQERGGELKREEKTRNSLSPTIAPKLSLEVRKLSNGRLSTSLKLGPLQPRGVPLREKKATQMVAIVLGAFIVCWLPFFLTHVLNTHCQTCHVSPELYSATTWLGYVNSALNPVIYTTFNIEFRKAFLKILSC

[11] = biological target: T5, Alpha-2A adrenergic receptor (Homo sapiens) (UniProt P08913); assay: Inhibition of adrenergic alpha2A receptor at 10 uM
T5 sequence (whole entry): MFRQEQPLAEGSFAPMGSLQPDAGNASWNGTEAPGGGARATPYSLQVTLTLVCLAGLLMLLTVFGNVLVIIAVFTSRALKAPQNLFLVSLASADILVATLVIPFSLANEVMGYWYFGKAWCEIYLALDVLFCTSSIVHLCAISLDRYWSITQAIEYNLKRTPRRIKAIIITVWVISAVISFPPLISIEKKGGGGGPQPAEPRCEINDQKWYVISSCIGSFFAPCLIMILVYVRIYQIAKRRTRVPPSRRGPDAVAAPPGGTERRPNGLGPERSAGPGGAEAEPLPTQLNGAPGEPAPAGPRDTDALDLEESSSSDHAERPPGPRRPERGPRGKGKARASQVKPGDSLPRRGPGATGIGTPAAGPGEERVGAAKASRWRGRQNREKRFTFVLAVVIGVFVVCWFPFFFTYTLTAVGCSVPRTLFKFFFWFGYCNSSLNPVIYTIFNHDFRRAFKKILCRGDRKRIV

[12] = Volume of distribution at steady state in Sprague-Dawley rat at 5 mg/kg, iv or 30 mg/kg, po; type: ADME, organism-based; details: in vivo, read-out: Vdss
[13] = Oral bioavailability in Sprague-Dawley rat at 30 mg/kg; type: ADME, organism-based; details: in vivo
[14] = Half life in Sprague-Dawley rat at 5 mg/kg, iv or 30 mg/kg, po; type: ADME, organism-based; details: in vivo
[15] = AUC in Sprague-Dawley rat plasma at 5 mg/kg, iv or 30 mg/kg, po; type: ADME, organism-based
[16] = Clearance in Sprague-Dawley rat at 5 mg/kg, iv or 30 mg/kg, po; type: ADME, organism-based; details: in vivo
[17] = Ratio of drug level in brain to plasma in Sprague-Dawley rat after 5 mins; type: ADME; details: brain and plasma, read-out: BPR
[18] = Cmax in Sprague-Dawley rat at 5 mg/kg, iv or 30 mg/kg, po; type: ADME, organism-based; details: in vivo
Rattus norvegicus [19] = organism: Rattus norvegicus; assay: Toxicity in high fat diet fed Sprague-Dawley rat after 12 weeks; type: organism-based; details: in vivo, 2016 h
Rattus norvegicus [20] = assay: Reduction of body weight in high fat diet fed Sprague-Dawley rat at 30 mg/kg, po bid after 12 weeks; type: functional; parameters: scale not given: the % may be the effect or the level left
Rattus norvegicus [21] = assay: Reduction of food intake in high fat diet fed Sprague-Dawley rat at 30 mg/kg, po bid; type: functional; parameters: scale not given: the % may be the effect or the level left

T1 sequence (Q99705 whole entry): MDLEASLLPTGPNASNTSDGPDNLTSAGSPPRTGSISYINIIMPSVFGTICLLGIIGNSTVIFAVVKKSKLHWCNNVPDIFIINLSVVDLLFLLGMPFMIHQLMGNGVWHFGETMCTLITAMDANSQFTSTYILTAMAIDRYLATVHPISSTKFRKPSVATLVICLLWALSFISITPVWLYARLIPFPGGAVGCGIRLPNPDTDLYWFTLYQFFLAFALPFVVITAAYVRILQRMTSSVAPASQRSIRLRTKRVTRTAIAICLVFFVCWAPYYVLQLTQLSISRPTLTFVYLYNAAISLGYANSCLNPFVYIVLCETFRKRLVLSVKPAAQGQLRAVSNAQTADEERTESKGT
Sequence of Somatostatin receptor type 5 (Homo sapiens) (P35346 whole entry): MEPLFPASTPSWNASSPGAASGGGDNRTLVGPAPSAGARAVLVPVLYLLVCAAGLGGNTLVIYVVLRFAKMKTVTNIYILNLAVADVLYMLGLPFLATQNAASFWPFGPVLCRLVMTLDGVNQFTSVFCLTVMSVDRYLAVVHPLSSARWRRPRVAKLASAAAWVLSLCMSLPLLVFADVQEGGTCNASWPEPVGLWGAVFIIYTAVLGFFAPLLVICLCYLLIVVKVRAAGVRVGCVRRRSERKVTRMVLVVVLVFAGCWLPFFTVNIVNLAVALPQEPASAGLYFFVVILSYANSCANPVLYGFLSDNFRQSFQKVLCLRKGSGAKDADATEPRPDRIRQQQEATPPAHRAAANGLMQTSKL

Structure (SMILES)	inhibition [1] [%]	EC50 [2] [nM]	Efficacy [2] [%]	Ki [3] [nM]	inhibition [4] [%]	inhibition [5] [%]	inhibition [6] [%]	inhibition [7] [%]	inhibition [8] [%]	inhibition [9] [%]	inhibition [10] [%]	inhibition [11] [%]	further results
CO[C@@H]1CN(CC2Cc3ccccc3C2)CC[C@H]1n1c(C)nc2cc(C)ccc21	-2	69	90	47	-8	63	8	24	14	6	40	33	
CO[C@@H]1CN(C[C@H]2Cc3ccc(Br)cc3C2)CC[C@H]1n1c(C(C)(C)O)nc2cc(C)ccc21		30	98	10	14	17	68	77	28	-8	79	34	
CO[C@@H]1CN(C[C@H]2Cc3ccc(C#N)cc3C2)CC[C@H]1n1c(C(C)(C)O)nc2cc(C)c(F)cc21				0.5									
Cc1ccc2c(c1)nc(C)n2C1CCN(CCCc2cccc(NC(=O)C(C)C)c2)CC1	13	175	96	25	4		23	57	83	18		37	
CO[C@@H]1CN(C[C@@H]2Cc3ccc(NC(=O)C(C)C)cc3C2)CC[C@H]1n1c(C)nc2cc(C)ccc21		40	74	31	3		10	1	32	3		7	Vd [12]: 14 L/kg; bioavailability [13]: 61%; half-life [14]: 2.5 h; AUC [15]: 8520 ng·h/mL; clearance [16]: 36.5 mL/min/kg; Kp at 5 min [17]: 0.06; Cmax [18]: 1280 ng/mL
COC(=O)Nc1ccc2c(c1)C[C@@H](CN1CC[C@@H](n3c(C)nc4cc(C)ccc43)[C@H](OC)C1)C2	10	20	81	20	8	29	65	64	95	22	28	14	
CO[C@@H]1CN(C[C@H]2Cc3ccc(Br)cc3C2)CC[C@H]1n1c(C)nc2cc(C)ccc21	54	20	92	5		31	80	69	59	48	84	81	
CO[C@H]1CN(CCCc2cccc(NC(=O)C3CC3)c2)CC[C@@H]1n1c(C)nc2cc(C)ccc21	16	20	82	5.2			32	61	67	11	52	15	
CO[C@@H]1CN(C[C@H]2Cc3ccc(C#N)cc3C2)CC[C@H]1n1c(C(C)(C)O)nc2cc(C)ccc21	23	17	85	3		14	-6	12	6	3	22	12	Vd [12]: 3.6 L/kg; bioavailability [13]: 47%; Activity (Rattus norvegicus [19]): Non-toxic; Activity (Rattus norvegicus [20]): -0.7%; half-life [14]: 1.9 h; AUC [15]: 4730 ng·h/mL; clearance [16]: 49.5 mL/min/kg; Kp at 5 min [17]: 0.9; Activity (Rattus norvegicus [21]): 28%; Cmax [18]: 1300 ng/mL
